Patent publication US6218406A, “Farnesyl transferase inhibitors, their preparation, the pharmaceutical compositions which contain them and their use in the preparation of medicaments” (Aventis Pharma S.A., priority 1996, dated 2001)
Counter-ions that a name gives are not always drawn. Like-named read-outs stand apart in the source and are kept apart here.

Biological target: farnesyl transferase (Homo sapiens, UniProt P49354+P49356)
Assay: Farnesyl transferase inhibition, [3H]-farnesylation of biotinylated K-ras C-terminal peptide (SPA assay)
Type: biochemical
Details: 60 min at 37° C., mean of two IC50 values
Description: The farnesyl transferase activity was measured by the amount farnesylated of K-ras substrate or of substrate derived from the peptide corresponding to its C-terminal part, the farnesyl group being introduced by farnesyl pyrophosphate (FPP).
It was then brought into contact with PVT-streptavidin (Amersham)® beads and was quantified by proximity scintillation (SPA assay) between the tritium and the PVT beads, by virtue of the streptavidin/biotin interaction.
Experimentally, farnesyl transferase purified according to the appended protocol was diluted, for this assay, to a concentration such that a consumption of substrates of less than 30% was obtained.
The reaction, carried out in Optiplates 96° microtitration plates, was initiated by the enzyme and lasted sixty minutes at 37° C. It was stopped by addition of 150 μl of mixture of a blocking buffer at pH 4 composed of 0.2M H3 PO4, 1.5 mM MgCl2, 0.5% (w/v) BSA, 0.05% (w/v) sodium azide containing 200 μg of PVT-streptavidin beads.
After slow agitation for thirty minutes (in order to remove the chemiluminescence), the plates were read as [^3 H]CPM in a Top Count® (Packard) scintillation counter for microplates, where they were converted into [^3 H]DPM from a range of coloured agent attenuating the scintillation (quenching).
The percentages of inhibition were calculated with respect to an inhibitor-free control after subtraction from all the values of that of a blank which only contained the substrates and the buffer.
The IC50 values were calculated or measured, from the inhibitions obtained at nine different concentrations, with Enzfitter® or Grafit® software. The IC50 values which appear in the results are the mean of measurements and calculations of two IC50 values.

[1] = K-Ras substrate, read-out: In vitro inhibitory activity (K-Ras) IC50

SMILES | IC50 [1] [µM] | IC50 (In vitro inhibitory activity (K-Ras) IC50, K-Ras substrate) [µM]
C=C(C(=O)N1C[C@H]2[C@@]3(c4ccc(OC)cc4)CC[C@H](c4ccccc43)[C@@]2(C(=O)NNc2cccnc2)C1)c1ccccc1OC (relative stereo) [Example 79, (3aRS,4SR,9SR,9aRS)-4,9-ethano-9-(4-methoxyphenyl)-2-[2-(2-methoxyphenyl)propenoyl]-2,3,3a,4,9,9a-hexahydro-1H-benzo[f]isoindole-3a-N'-(3-pyridyl)carbohydrazide] | 0.045 | 
C=C(C(=O)N1C[C@H]2[C@@]3(c4cccc(N(C)C)c4)CC[C@H](c4ccccc43)[C@@]2(C(=O)OC)C1)c1ccccc1OC (relative stereo) [Example 91, methyl (3aRS,4SR,9SR,9aRS)-9-(3-N,N-dimethylaminophenyl)-4,9-ethano-2-[2-(2-methoxyphenyl)propenoyl]-2,3,3a,4,9,9a-hexahydro-1H-benzo[f]isoindole-3a-carboxylate] | 0.183 | 
C=C(C(=O)N1C[C@@H]2[C@]3(c4ccc(F)cc4)CC[C@@H](c4ccccc43)[C@]2(C(=O)OC)C1)c1ccccc1OC (racemic) [Example 64, methyl (3aRS,4SR,9SR,9aRS)-4,9-ethano-9-(4-fluorophenyl)-2-[2-(2-methoxyphenyl)propenoyl]-2,3,3a,4,9,9a-hexahydro-1H-benzo[f]isoindole-3a-carboxylate] | 0.325 | 
C=C(C(=O)N1C[C@@H]2[C@@]3(c4c[nH]c5ccccc45)CC[C@@H](c4ccccc43)[C@]2(C(=O)OC)C1)c1ccccc1OC (racemic) [Example 55, methyl (3aRS,4SR,9SR,9aRS)-4,9-ethano-2-[2-(2-methoxyphenyl)propenoyl]-9-(3-indolyl)-2,3,3a,4,9,9a-hexahydro-1H-benzo[f]isoindole-3a-carboxylate] | 0.558 | 
C=C(C(=O)N1C[C@@H]2[C@]3(c4ccc(C(F)(F)F)cc4)CC[C@@H](c4ccccc43)[C@]2(C(=O)O)C1)c1ccccc1OC (racemic) [Example 40, (3aRS,4SR,9SR,9aRS)-4,9-ethano-2-[2-(2-methoxyphenyl)propenoyl]-9-[4-(trifluoromethyl)phenyl]-2,3,3a,4,9,9a-hexahydro-1H-benzo[f]isoindole-3a-carboxylic Acid] | 0.083 | 
COc1ccccc1CC(=O)N1C[C@H]2[C@@]3(c4ccc(F)cc4)CC[C@H](c4ccccc43)[C@@]2(C(=O)O)C1 (relative stereo) [Example 8, (3aRS,4SR,9SR,9aRS)-4,9-ethano-9-(4-fluorophenyl)-2-[(2-methoxyphenyl)acetyl]-2,3,3a,4,9,9a-hexahydro-1H-benzo[f]isoindole-3a-carboxylic Acid] |  | 0.1
C=C(C(=O)N1C[C@@H]2[C@]3(c4ccc(C)cc4)CC[C@@H](c4c(OC)cccc43)[C@]2(C(=O)OC)C1)c1ccccc1OC (racemic) [Example 98, methyl (3aRS,4SR,9SR,9aRS)-4,9-ethano-5-methoxy-2-[2-(2-methoxyphenyl)propenoyl]-9-(4-methylphenyl)-2,3,3a,4,9,9a-hexahydro-1H-benzo[f]isoindole-3a-carboxylate] | 0.663 | 
C=C(C(=O)N1C[C@@H]2[C@]3(c4ccc(C)cc4)CC[C@@H](c4c(OC)cccc43)[C@]2(C(=O)O)C1)c1ccccc1OC (racemic) [Example 99, (3aRS,4SR,9SR,9aRS)-4,9-ethano-5-methoxy-2-[2-(2-methoxyphenyl)propenoyl]-9-(4-methylphenyl)-2,3,3a,4,9,9a-hexahydro-1H-benzo[f]isoindole-3a-carboxylic Acid] | 0.018 | 
C=C(C(=O)N1C[C@@H]2[C@]3(c4ccc5c(c4)OCCO5)CC[C@@H](c4ccccc43)[C@]2(C(=O)OC)C1)c1ccccc1OC (racemic) [Example 31, methyl (3aRS,4SR,9SR,9aRS)-9-(2,3-dihydro-1,4-benzodioxin-6-yl)-4,9-ethano-2-[2-(2-methoxyphenyl)propenoyl]-2,3,3a,4,9,9a-hexahydro-1H-benzo[f]isoindole-3a-carboxylate] | 0.101 | 
C=C(C(=O)N1C[C@@H]2[C@]3(c4cccc(C)c4)CC[C@@H](c4ccccc43)[C@]2(C(=O)O)C1)c1ccccc1OC (racemic) [Example 69, (3aRS,4SR,9SR,9aRS)-4,9-ethano-2-[2-(2-methoxyphenyl)propenoyl]-9-(3-methylphenyl)-2,3,3a,4,9,9a-hexahydro-1H-benzo[f]isoindole-3a-carboxylic Acid] | 0.053 | 
C=C(C(=O)N1C[C@@H]2[C@]3(c4ccc5ccccc5c4)CC[C@@H](c4ccccc43)[C@]2(C(=O)O)C1)c1ccccc1OC (relative stereo) [Example 46, sodium salt of (3aRS,4SR,9SR,9aRS)-4,9-ethano-2-[2-(2-methoxyphenyl)propenoyl]-9-(2-naphthyl)-2,3,3a,4,9,9a-hexahydro-1H-benzo[f]isoindole-3a-carboxylic Acid] | 0.132 | 
C=C(C(=O)N1C[C@@H]2[C@]3(c4ccc5c(c4)CCO5)CC[C@@H](c4ccccc43)[C@]2(C(=O)NCc2cccnc2)C1)c1ccccc1OC (relative stereo) [Example 63, (3aRS,4SR,9SR,9aRS)-9-(2,3-dihydrobenzofuran-5-yl)-4,9-ethano-2-[2-(2-methoxyphenyl)propenoyl]-2,3,3a,4,9,9a-hexahydro-1H-benzo[f]isoindole-3a-N-(3-pyridylmethyl)carboxamide] | < 0.02 | 
C=C(C(=O)N1C[C@@H]2[C@]3(c4ccc(Cl)cc4)CC[C@@H](c4ccccc43)[C@]2(C(=O)OC)C1)c1ccccc1OC (racemic) [Example 52, methyl (3aRS,4SR,9SR,9aRS)-9-(4-chlorophenyl)-4,9-ethano-2-[2-(2-methoxyphenyl)-propenoyl]-2,3,3a,4,9,9a-hexahydro-1H-benzo[f]isoindole-3a-carboxylate] | 0.181 | 
C=C(C(=O)N1C[C@@H]2[C@]3(c4ccc(OC(F)(F)F)cc4)CC[C@@H](c4ccccc43)[C@]2(C(=O)O)C1)c1ccccc1OC (racemic) [Example 82, (3aRS,4SR,9SR,9aRS)-4,9-ethano-2-[2-(2-methoxyphenyl)propenoyl]-9-(4-trifluoromethoxyphenyl)-2,3,3a,4,9,9a-hexahydro-1H-benzo[f]isoindole-3a-carboxylic Acid] | 0.097 | 
C=C(C(=O)N1C[C@@H]2[C@]3(c4ccc(C(C)C)cc4)CC[C@@H](c4ccccc43)[C@]2(C(=O)O)C1)c1ccccc1OC (racemic) [Example 57, (3aRS,4SR,9SR,9aRS)-4,9-ethano-9-(4-isopropylphenyl)-2-[2-(2-methoxyphenyl)propenoyl]-2,3,3a,4,9,9a-hexahydro-1H-benzo[f]isoindole-3a-carboxylic Acid] | 0.28 | 
C=C(C(=O)N1C[C@@H]2[C@]3(c4cccc(Br)c4)CC[C@@H](c4ccccc43)[C@]2(C(=O)O)C1)c1ccccc1OC (racemic) [Example 84, (3aRS,4SR,9SR,9aRS)-9-(3-bromophenyl)-4,9-ethano-2-[2-(2-methoxyphenyl)propenoyl]-2,3,3a,4,9,9a-hexahydro-1H-benzo[f]isoindole-3a-carboxylic Acid] | 0.008 | 
C=C(C(=O)N1C[C@@H]2[C@]3(c4ccc(OC)cc4)CC[C@@H](c4ccccc43)[C@]2(C(=O)NO)C1)c1ccccc1OC (racemic) [Example 78, (3aRS,4SR,9SR,9aRS)-4,9-ethano-9-(4-methoxyphenyl)-2-[2-(2-methoxyphenyl)propenoyl]-2,3,3a,4,9,9a-hexahydro-1H-benzo[f]isoindole-3a-hydroxamic acid] | 0.048 | 
